Measurements reported in patent US7214708B2, “Synthetic discodermolide analogs” (priority 2004, dated 2007).

How the values were obtained:
A549 t12 = assay: inhibition of proliferation of tumor cell line A549 t12; format: cell-based, human; conditions: A549 t12, A549 subline resistant to paclitaxel, some results are the average of multiple runs
Protocol: (§1) The biological activities of compounds I were evaluated by measuring their inhibitory effect on the proliferation of various tumor cell lines. MCF-7, A549, SKOV-3, and CCRF-CEM are human breast cancer, lung cancer, ovary cancer, and leukemia cell lines, respectively. HL-60/MX2 is a leukemia cell line resistant to mitoxantrone. A549 t12 is an A549 subline resistant to paclitaxel. CCRF-CEM/PTX, CCRF-CEM/VBL, and CCRF-CEM/VP16 are CCRF-CEM sublines resistant to paclitaxel, vinblastine, and VP-16 (etoposide), respectively. NCI/ADR (also referred to as NCI/ADR-Res) is a multi-drug resistant human breast cancer cell line.
(§2) The biological activity of compound II-A was evaluated by measuring its inhibitory effect on the proliferation of various tumor cell lines. (The characteristics of the various cell lines employed was previously described hereinabove.)
(§3) The biological activity of compounds IV was evaluated by measuring their inhibitory effect on the proliferation of various tumor cell lines. The characteristics of the cell lines used has been discussed hereinabove.

NCI/ADR = assay: inhibition of proliferation of tumor cell line NCI/ADR; format: cell-based; conditions: NCI/ADR (NCI/ADR-Res) multi-drug resistant human breast cancer cell line; some results are the average of multiple runs
Protocol: as §1, §2
(§4) The biological activity of compounds III was evaluated by measuring their inhibitory effect on the proliferation of various tumor cell lines. The characteristics of the cells lines used has been described hereinabove.
as §3

A549 = assay: inhibition of proliferation of tumor cell line A549; format: cell-based; conditions: A549 human lung cancer cell line; some results are the average of multiple runs
Protocol: as §1, §2, §4, §3

MCF-7 = assay: inhibition of proliferation of tumor cell line MCF-7; format: cell-based; conditions: MCF-7 human breast cancer cell line, some results are the average of multiple runs
Protocol: as §1, §2, §4, §3

HL-60/MX2 = assay: inhibition of proliferation of tumor cell line HL-60/MX2; format: cell-based; conditions: HL-60/MX2 leukemia cell line resistant to mitoxantrone, some results are the average of multiple runs
Protocol: as §1, §2, §3

CCRF-CEM = assay: inhibition of proliferation of tumor cell line CCRF-CEM; format: cell-based; conditions: CCRF-CEM human leukemia cell line; some results are the average of multiple runs
Protocol: as §1, §2, §3

CCRF-CEM/VBL = assay: inhibition of proliferation of tumor cell line CCRF-CEM/VBL; format: cell-based, human; conditions: CCRF-CEM subline resistant to vinblastine, some results are the average of multiple runs
Protocol: as §1, §2, §3

CCFR-CEM/VP16 = assay: inhibition of proliferation of tumor cell line CCRF-CEM/VP16; format: cell-based, human; conditions: CCRF-CEM subline resistant to VP-16 (etoposide), some results are the average of multiple runs
Protocol: as §1, §2, §3

SKOV-3 = assay: inhibition of proliferation of tumor cell line SKOV-3; format: cell-based; conditions: SKOV-3 human ovary cancer cell line, some results are the average of multiple runs
Protocol: as §1, §2, §4

CCRF-CEM/PTX = assay: inhibition of proliferation of tumor cell line CCRF-CEM/PTX; format: cell-based, human; conditions: CCRF-CEM subline resistant to paclitaxel, some results are the average of multiple runs
Protocol: as §1, §2, §3

Molecule: C=C/C=C\[C@H](C)[C@H](OC(N)=O)[C@@H](C)[C@H](O)[C@@H](C)C/C(C)=C\[C@H](C)[C@@H](O)[C@@H](C)/C=C\[C@H](C[C@@H]1OC(=O)[C@H](C)[C@@H](O)[C@H]1C)OCOCCOC [I-B]
- IC50 (A549 t12; Homo sapiens): 5.8 nM
- IC50 (NCI/ADR): 140 nM
- IC50 (A549): 6.7 nM
- IC50 (MCF-7; MCF7): 5.5 nM

Molecule: C=C/C=C\[C@H](C)[C@H](OC(N)=O)[C@@H](C)[C@H](O)[C@@H](C)C/C(C)=C\[C@H](C)[C@@H](O)[C@@H](C)/C=C(/C)[C@@H](O)C[C@@H]1OC(=O)[C@H](C)[C@@H](O)[C@H]1C [II-A, 8-methyldiscodermolide]
- IC50 (A549 t12; Homo sapiens): 31 nM
- IC50 (HL-60/MX2; Homo sapiens, HL60/MX2): 11 nM
- IC50 (NCI/ADR): 610 nM
- IC50 (A549): 12 nM
- IC50 (CCRF-CEM): 5.6 nM
- IC50 (CCRF-CEM/VBL; Homo sapiens): 152 nM
- IC50 (CCFR-CEM/VP16; Homo sapiens): 9 nM
- IC50 (SKOV-3; SK-OV-3): 29 nM
- IC50 (CCRF-CEM/PTX; Homo sapiens): 42.3 nM
- IC50 (MCF-7; MCF7): 7.7 nM

Molecule: C=C/C=C\[C@H](C)[C@H](OC(N)=O)[C@@H](C)[C@H](O)[C@@H](C)C/C(C)=C\[C@H](C)[C@@H](O)[C@@H](C)/C=C\[C@@H](O)C[C@H]1CCC(=O)O1 [III-A]
- IC50 (NCI/ADR): 350 nM
- IC50 (A549): 4.9 nM
- IC50 (SKOV-3; SK-OV-3): 14 nM
- IC50 (MCF-7; MCF7): 2.9 nM

Molecule: CC/C=C\[C@H](C)[C@H](OC(N)=O)[C@@H](C)[C@H](O)[C@@H](C)C/C(C)=C\[C@H](C)[C@@H](O)[C@@H](C)/C=C\[C@@H](O)C[C@H]1CCC(=O)O1 [III-B]
- IC50 (NCI/ADR): 730 nM
- IC50 (A549): 46 nM
- IC50 (SKOV-3; SK-OV-3): 15 nM
- IC50 (MCF-7; MCF7): 6.4 nM

Molecule: CC/C=C\[C@H](C)[C@H](OC(N)=O)[C@@H](C)[C@H](O)[C@@H](C)C/C(C)=C\[C@H](C)[C@@H](O)[C@@H](C)/C=C\[C@@H](O)C[C@@H]1OC(=O)[C@H](C)[C@@H](OC)[C@H]1C [IV-A]
- IC50 (A549 t12; Homo sapiens): 50 nM
- IC50 (HL-60/MX2; Homo sapiens, HL60/MX2): 12 nM
- IC50 (NCI/ADR): 140 nM
- IC50 (A549): 11 nM
- IC50 (CCRF-CEM): 8.6 nM
- IC50 (CCRF-CEM/VBL; Homo sapiens): 209 nM
- IC50 (CCFR-CEM/VP16; Homo sapiens): 12 nM
- IC50 (CCRF-CEM/PTX; Homo sapiens): 65 nM
- IC50 (MCF-7; MCF7): 5.8 nM

Molecule: CC/C=C\[C@H](C)[C@H](OC(N)=O)[C@@H](C)[C@H](O)[C@@H](C)C/C(C)=C\[C@H](C)[C@@H](O)[C@@H](C)/C=C\[C@@H](O)C[C@@H]1OC(=O)[C@H](C)C[C@H]1C [IV-B]
- IC50 (A549 t12; Homo sapiens): 12 nM
- IC50 (HL-60/MX2; Homo sapiens, HL60/MX2): 4.1 nM
- IC50 (NCI/ADR): 250 nM
- IC50 (A549): 6.5 nM
- IC50 (CCRF-CEM): 4.4 nM
- IC50 (CCRF-CEM/VBL; Homo sapiens): 416 nM
- IC50 (CCFR-CEM/VP16; Homo sapiens): 8.4 nM
- IC50 (CCRF-CEM/PTX; Homo sapiens): 79 nM
- IC50 (MCF-7; MCF7): 3.8 nM

Molecule: (+)-Discodermolide [reference compound]
- IC50 (A549 t12): 26.7 nM
- IC50 (HL-60/MX2): 150 nM
- IC50 (NCI/ADR): 247 nM
- IC50 (A549): 24.4 nM
- IC50 (CCRF-CEM): 14.8 nM
- IC50 (CCRF-CEM/VBL): 158 nM
- IC50 (CCFR-CEM/VP16): 53 nM
- IC50 (SKOV-3): 31.7 nM
- IC50 (CCRF-CEM/PTX): 92.8 nM
- IC50 (MCF-7): 14.1 nM
